Test systems include SF-539 CNS; SNB-75 CNS; SR leukemia; OVCAR-3 ovarian; NCI-H522 lung; HCT-116 colon; SN12C renal; SNB-19 CNS; IGROV1 ovarian; SK-MEL-5 melanoma.
Test in all cases: DTP human tumour cell line panel, 48 h

Values joined by “and” are separate entries in the source; they are usually repeats but may differ in a detail not shown here. Equal values may be shown once.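 Results reflect a 48-hour exposure of cells in 96-well plates to compound at five concentrations. At the GI50, growth is halved. Definition used: TGI = concentration required for complete inhibition of growth.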 Bounds are passed on as bounds.

One may read the GI50 as the concentration giving 50% growth inhibition. The TGI is the concentration giving total growth inhibition. The low end stands for more potent growth arrest, the high end for less potent growth arrest. In the case of `COc1cc(C)c(C(=O)O[C@H]2[C@H](O[C@H]3[C@@H](O)COC(O[C@H]4C[C@H]5[C@@H]6CC=C7C[C@@H](O)CC[C@]7(C)[C@H]6CC[C@]5(C)[C@H]4[C@H](C)C(=O)CCC(C)C)[C@@H]3OC(C)=O)OC[C@@H](O)[C@@H]2O)c(C)c1` (some centres undefined), the GI50 is less than 0.01 µM with SF-539 CNS; less than 0.01 µM in the assay on SNB-75 CNS; less than 0.01 µM in the assay on SR leukemia; 2.77 µM with OVCAR-3 ovarian; less than 0.01 µM with NCI-H522 lung; less than 0.01 µM in the assay on HCT-116 colon. The GI50 is 10 µM in the assay on SN12C renal, less than 0.01 µM in the assay on SNB-19 CNS, 0.247 µM in the assay on IGROV1 ovarian and less than 0.01 µM in the assay on SK-MEL-5 melanoma. Also, the TGI in the assay with SF-539 CNS came to 0.0137 µM; in the assay on SNB-75 CNS, 7.71 µM; in the assay on SR leukemia it was 21.1 µM; with OVCAR-3 ovarian, 22 µM; with NCI-H522 lung it was 0.334 µM; in the assay with HCT-116 colon, 2.29 µM. The TGI in the assay with SN12C renal came to 25.6 µM; with SNB-19 CNS, 4.93 µM; in the assay with IGROV1 ovarian, 19.9 µM; in the assay with SK-MEL-5 melanoma, 0.0181 µM.

Take `CCSc1oc(-c2ccccc2)nc1[P+](c1ccccc1)(c1ccccc1)c1ccccc1`: the GI50 with SF-539 CNS was 0.376 µM; in the assay with SNB-75 CNS, 0.177 µM; with SR leukemia, 0.377 µM; in the assay on OVCAR-3 ovarian, 0.268 µM; in the assay on NCI-H522 lung it was 0.261 µM; in the assay with HCT-116 colon, 0.218 µM. Also, the GI50 is 0.298 µM in the assay on SN12C renal, 0.293 µM in the assay with SNB-19 CNS, 0.285 µM with IGROV1 ovarian and 0.164 µM in the assay on SK-MEL-5 melanoma. Moreover, the TGI in the assay with SF-539 CNS amounted to 2.85 µM; in the assay with SNB-75 CNS, 0.727 µM; with SR leukemia, 24.2 µM; with OVCAR-3 ovarian, 1.7 µM; with NCI-H522 lung, 1.09 µM; with HCT-116 colon, 3.42 µM. Also, the TGI amounted to 1.23 µM in the assay on SN12C renal, 3.88 µM in the assay with SNB-19 CNS, 1.53 µM in the assay on IGROV1 ovarian and 0.315 µM with SK-MEL-5 melanoma.

As for `CC(C)[C@@H]1C=C(c2ccccc2)c2ccccc2C1C(C#N)(C#N)C(C)C` (some centres undefined), the TGI with SF-539 CNS, in the assay on SNB-75 CNS, in the assay on SR leukemia, in the assay with OVCAR-3 ovarian, with HCT-116 colon and with SN12C renal was greater than 100 µM throughout. Moreover, the TGI in the assay on SNB-19 CNS, in the assay on IGROV1 ovarian and in the assay with SK-MEL-5 melanoma was greater than 100 µM throughout.

For the molecule `O=P(Oc1ccc(Cl)cc1)(Oc1ccc(Cl)cc1)N1CC1`, the TGI with SF-539 CNS, in the assay on SNB-75 CNS, in the assay with SR leukemia, in the assay with OVCAR-3 ovarian, in the assay with SN12C renal and in the assay on SNB-19 CNS was greater than 10 µM throughout. This molecule gave a TGI in the assay on SK-MEL-5 melanoma greater than 10 µM.

Consider `COc1ccc2cccc(C(=O)c3ccc(C)c4c3CCC4)c2c1`, for which the TGI is greater than 100 µM with SNB-75 CNS; 85.3 µM in the assay with SR leukemia; greater than 100 µM in the assay on OVCAR-3 ovarian; 64.1 µM in the assay with NCI-H522 lung; greater than 100 µM in the assay on HCT-116 colon; greater than 100 µM in the assay with SN12C renal. Further, the TGI with SNB-19 CNS was greater than 100 µM; in the assay on IGROV1 ovarian, 99.2 µM; in the assay with SK-MEL-5 melanoma, 36.8 µM.

Regarding `CCN(CC)CCN1C(=O)c2c(c(C)c3c(oc4cc(O)ccc43)c2C)C1=O`, the GI50 is 1.68 µM in the assay on SF-539 CNS; 1.44 µM in the assay with SNB-75 CNS; 1.89 µM in the assay with SR leukemia; 1.78 µM in the assay on OVCAR-3 ovarian; 2.11 µM in the assay on NCI-H522 lung; 1.63 µM in the assay with SN12C renal. The values for the GI50 with SNB-19 CNS, in the assay with IGROV1 ovarian and with SK-MEL-5 melanoma were 1.68 µM, 1.6 µM and 1.56 µM, respectively. The TGI with SF-539 CNS is 3.05 µM; in the assay on SNB-75 CNS, 2.8 µM; in the assay with SR leukemia, greater than 100 µM; with OVCAR-3 ovarian, 3.34 µM; in the assay with NCI-H522 lung it was 4.71 µM; with SN12C renal, 3.11 µM. In addition, the TGI worked out at 3.21 µM with SNB-19 CNS, 3.17 µM with IGROV1 ovarian and 2.92 µM in the assay on SK-MEL-5 melanoma.

Take `COC(=O)C(=O)C1(CCC(C)=O)c2ccccc2-c2ccccc21`: the TGI in the assay with SNB-75 CNS, in the assay with SR leukemia, in the assay with OVCAR-3 ovarian, in the assay with NCI-H522 lung, in the assay on HCT-116 colon and in the assay with SN12C renal was greater than 100 µM in each case. Besides, the TGI in the assay with SNB-19 CNS, with IGROV1 ovarian and with SK-MEL-5 melanoma was greater than 100 µM each time.

`Nc1[nH]c(=O)ncc1F`: the TGI with SF-539 CNS, in the assay with SR leukemia, in the assay on OVCAR-3 ovarian, in the assay with NCI-H522 lung, in the assay with HCT-116 colon and in the assay on SN12C renal was greater than 100 µM in each case. Also, the TGI in the assay with SNB-19 CNS, with IGROV1 ovarian and in the assay with SK-MEL-5 melanoma was greater than 100 µM each time.

Turning to `O=c1[nH]cc(CS(=O)(=O)Cc2c[nH]c(=O)[nH]c2=O)c(=O)[nH]1`, the TGI with SF-539 CNS, with SNB-75 CNS, with SR leukemia, in the assay on NCI-H522 lung, in the assay on HCT-116 colon and in the assay with SN12C renal was greater than 100 µM each time. In addition, the TGI with SNB-19 CNS, in the assay with IGROV1 ovarian and in the assay with SK-MEL-5 melanoma was greater than 100 µM in each case.

For `CCC1C(C)c2c([nH]c3ccccc23)C2C(=O)N(c3ccccc3)C(=O)C21` (centres undefined), the TGI in the assay on SF-539 CNS came to 34.5 µM; in the assay on SNB-75 CNS, 39.4 µM; with SR leukemia it was 47.3 µM; in the assay with OVCAR-3 ovarian, 27.1 µM; with SN12C renal it was 26.3 µM; in the assay with IGROV1 ovarian, 22.3 µM. Also, the TGI in the assay on SK-MEL-5 melanoma amounted to 28.8 µM.

For the molecule `COC(=O)C1=C(OC)c2cc3c(cc2C(c2cc(OC)c(OC)c(OC)c2)C1C(=O)OC)OCO3` (centres undefined), the TGI in the assay with SF-539 CNS, in the assay with SNB-75 CNS, with SR leukemia, in the assay with OVCAR-3 ovarian, in the assay on HCT-116 colon and with SN12C renal was greater than 100 µM in each case. The TGI in the assay with IGROV1 ovarian and in the assay with SK-MEL-5 melanoma was greater than 100 µM in each case.

Take `Cc1c[nH]c2c1C13CC1CN(C(=O)c1cc4cc(NC(=O)c5cc6ccccc6o5)ccc4[nH]1)C3=CC2=O` (centres undefined): the TGI in the assay on SF-539 CNS is less than 0.001 µM; in the assay with SR leukemia, less than 0.001 µM; with NCI-H522 lung it was less than 0.001 µM; in the assay with HCT-116 colon it was 11.2 nM and 0.117 µg/mL; in the assay on SN12C renal, less than 0.001 µM; in the assay on SNB-19 CNS it was 0.00481 µM. The TGI with IGROV1 ovarian is 13.5 ng/mL; in the assay on SK-MEL-5 melanoma, less than 0.001 µM. The GI50 in the assay with OVCAR-3 ovarian, in the assay on NCI-H522 lung, in the assay on HCT-116 colon, in the assay with SN12C renal, in the assay on IGROV1 ovarian and in the assay with SK-MEL-5 melanoma was greater than 1.17 ng/mL each time.

Values taken from PubChem BioAssay (NCI).
